What all share (experiment): NCI tumour cell line growth inhibition, 48 h
Assay [1] concerns CCRF-CEM leukemia.
Assay [2] concerns HT29 colon.
Assay [3] concerns MDA-MB-231 breast.
Assay [4] has as its system DU-145 prostate.
The test system of assay [5] is SW-620 colon.
Assay [6] deals with SK-MEL-2 melanoma.
Assay [7] relates to KM12 colon.
The subject of assay [8] is RPMI-8226 leukemia.
Assay [9] relates to SNB-75 CNS.
The test system of assay [10] is COLO 205 colon.

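Following 48 hours of exposure in 96-well plates, responses at five concentrations were used to interpolate endpoints linearly. TGI denotes the concentration required for complete inhibition of growth.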

Take `C=CCN1CCC2(CC1)NC(=O)c1ccccc1O2`: the TGI in assay [1], in [2], in [3], in assay [4], in assay [5] and in assay [6] was over 100 µM each time. The TGI in assay [7], in assay [8], in [9] and in [10] was over 100 µM throughout.

With `CC[C@H](C)C1=C(OC(C)=O)[N@+]2([O-])Oc3ccc(-c4c(OC(C)=O)c(OC(C)=O)c(-c5ccc(OC(C)=O)cc5)c(OC(C)=O)c4OC(C)=O)cc3O[C@]2([C@@H](C)CC)C(=O)N1OC(C)=O`, the TGI in assay [1] was 11.3 µM; in [2], over 50 µM; in assay [3], over 50 µM; in [4], over 50 µM; in assay [5] it was over 50 µM; in [6] it was 24.1 µM. For the same molecule, the TGI was over 50 µM in [7], 22.4 µM in assay [8], 39.5 µM in assay [9] and 15.8 µM in [10].

Turning to `CSC1=C(C(=O)Nc2ccccc2)C(N)=NC1=O`, the TGI in assay [1], in assay [2], in [3], in assay [4], in [5] and in [6] was over 100 µM in each case. The TGI in assay [7], in assay [8], in assay [9] and in assay [10] was over 100 µM in each case.

`CCCCNC(=S)Nc1nc(C(=O)NNC(=O)c2ccccc2)cs1`: the TGI in assay [1] was over 100 µM; in [2] it was over 100 µM; in assay [3], 29 µM; in assay [4], 53.4 µM; in [5], 30.2 µM; in assay [6], 35.9 µM. Besides, the TGI in assay [7] is 36.9 µM; in assay [8] it was over 100 µM; in assay [9], 72.7 µM; in [10], 27.3 µM.

As to `CC1=CC(=O)/C(=C/n2c(=S)[nH]c3ccccc32)C(=O)O1`, the TGI in [1], in [2], in assay [3], in assay [4], in assay [5] and in assay [6] was over 100 µM each time. Besides, the TGI in assay [7], in [8], in assay [9] and in [10] was over 100 µM each time.

Regarding `OC(c1ccccc1)(c1cccnc1)C(O)(c1ccccc1)c1cccnc1` (stereo not given), the TGI in [1], in assay [2], in assay [3], in assay [4], in assay [5] and in assay [6] was over 100 µM in each case. In addition, the TGI in [7], in assay [8], in [9] and in assay [10] was over 100 µM each time.

`Cc1cc(C)c(N=Nc2c(O)c(S(=O)(=O)O)cc3cc(S(=O)(=O)O)ccc23)cc1C`: the TGI in assay [1], in assay [2], in assay [3], in assay [4], in assay [5] and in [6] was over 100 µM in each case. In addition, the TGI in [7], in [8], in assay [9] and in assay [10] was over 100 µM in each case.

Consider `Nc1ccc(-c2nc3ccccc3s2)cc1Br`, for which the TGI in assay [1], in assay [2], in [3], in [4], in assay [5] and in [6] was over 100 µM throughout. The TGI is over 100 µM in [7], over 100 µM in assay [8], over 86.4 µM in [9] and over 100 µM in assay [10].

As for `C=CC(Br)(CBr)CCC(Br)C(C)C` (stereo not given), the TGI was 3.46 µM in assay [1]; 8.4 µM in [2]; 10.3 µM in [3]; 22.8 µM in assay [4]; 5.38 µM in assay [5]; 12.8 µM in assay [6]. Further, the TGI in [7] was found to be 4.83 µM; in assay [8], 4 µM; in [9], 6.13 µM; in [10], 19.8 µM.

Regarding `COC(=O)[C@H](CCSC)NC(=O)c1ccc(CNC(=O)/C(C)=C/c2ccccc2)cc1`, the TGI in [1] is over 100 µM; in assay [2] it was 42.7 µM; in [3], over 100 µM; in assay [4] it was over 100 µM; in assay [5], over 100 µM; in assay [6], 66.3 µM. In addition, the TGI in assay [7] is over 100 µM; in assay [8], over 100 µM; in assay [9], 28.4 µM; in assay [10] it was over 100 µM.

`COc1cc(C=O)cc(C=Nc2ccc(S(N)(=O)=O)cc2)c1O`: the TGI in assay [1] was 33.8 µM; in [2], over 100 µM; in assay [3], 76.4 µM; in [4], over 100 µM; in assay [5], over 100 µM; in [6], 20.8 µM. For the same molecule, the TGI in assay [7] was over 100 µM; in assay [8], 33.3 µM; in assay [9], over 100 µM; in [10] it was 76.9 µM.

Consider `O=C1OC(=O)C2C1C(c1ccccc1[N+](=O)[O-])C=C(c1ccco1)N2c1ccncc1` (stereo not given), for which the TGI in assay [1] was 17 µM; in [2], 6.13 µM; in assay [3], 32.9 µM; in assay [4] it was 19.7 µM; in [5] it was 15 µM; in [6], 19.8 µM. In addition, the TGI in assay [7] came to 4.65 µM; in assay [8], 4.4 µM; in [9] it was 35.2 µM; in assay [10] it was 23.9 µM.

Source of the values: PubChem BioAssay (NCI).
